# Where two headings read alike, the source gives them in different places.
# How the values were obtained:
# [1] = SAD study: single-dose nacubactam pharmacokinetics (plasma/urine, LC-MS/MS, noncompartmental); type: in vivo; details: human, iv; for AUC(0-inf) / AUC(0-t) / Cmax / Tmax / k el / clearance / Vd / half-life: plasma
# Experimental: Study treatments were administered as 30-min (SAD study) or 90-min (MAD study) i.v. infusions, the latter to investigate the pharmacokinetics using a longer infusion time, which is commonly used to increase the time above the MIC of β-lactams ([15]). The choice of a 90-min infusion time for the MAD study was dictated by the stability and toxicology data available at the time the study was being designed. […] Safety assessments included monitoring of AEs, laboratory safety tests (hematology, serum chemistry, and urinalysis), 12-lead ECG (discrete recordings and 24-h Holter recording), and vital signs (blood pressure, pulse rate, and body temperature). In the SAD study, safety assessments were performed predose at screening, at day 1, postdose periodically on days 1, 2, and 7 (follow-up), and at early withdrawal, if relevant. […] In the MAD study, safety assessments were done predose at screening, at day 2, postdose periodically on days 1, 2, 4, 7, and 8, on days 13 to 15 (follow-up), and at early withdrawal, if relevant. […] On all other days, a single predose sample was collected for pharmacokinetic evaluation prior to the morning infusion. Blood was collected into lithium-heparin tubes and stored at a nominal –80°C temperature until analysis.
# [2] = set-up: method as in unpublished data; details: ref unpublished data; cited from earlier work
# [3] = 1000 mg, single i.v. dose 1,000 mg, n = 6, mean (SD)
# [4] = 2000 mg, single i.v. dose 2,000 mg, n = 6, mean (SD)
# [5] = single i.v. dose 50 mg, n = 6, mean (SD)
# [6] = single i.v. dose 150 mg, n = 6, mean (SD)
# [7] = single i.v. dose 500 mg, n = 6, mean (SD)
structure (smiles),measurement,setting,value
NCCONC(=O)[C@@H]1CC[C@@H]2CN1C(=O)N2OS(=O)(=O)O [Nacubactam],CL renal,"[1]; plasma and urine, single i.v. doses, 6.86 ± 0.64 to 9.66 ± 1.66, read-out: mean CLR (renal clearance), range over the five dose levels",114 to 161 mL/min
same,AUC(0-inf),[1]; [3],143000 ng·h/mL
same,AUC(0-t),[1]; [3],142000 ng·h/mL
same,Cmax,[1]; [3],72000 ng/mL
same,Tmax,[1]; [3],0.5 h
same,k el,[1]; [3],9.72e-05 s⁻¹
same,clearance,"[1]; 1000 mg, single i.v. dose 1,000 mg, n = 6, mean (SD), read-out: CL (converted)",117 mL/min
same,Vd,"[1]; 1000 mg, single i.v. dose 1,000 mg, n = 6, mean (SD), read-out: Vss",17 L
same,half-life,"[1]; 1000 mg, single i.v. dose 1,000 mg, n = 6, mean (SD), read-out: t1/2 (converted)",2.05 h
same,AUC(0-inf),[1]; [4],229000 ng·h/mL
same,AUC(0-t),[1]; [4],229000 ng·h/mL
same,Cmax,[1]; [4],112000 ng/mL
same,Tmax,[1]; [4],0.5 h
same,k el,[1]; [4],8.61e-05 s⁻¹
same,clearance,"[1]; 2000 mg, single i.v. dose 2,000 mg, n = 6, mean (SD), read-out: CL (converted)",146 mL/min
same,Vd,"[1]; 2000 mg, single i.v. dose 2,000 mg, n = 6, mean (SD), read-out: Vss",20.6 L
same,half-life,"[1]; 2000 mg, single i.v. dose 2,000 mg, n = 6, mean (SD), read-out: t1/2 (converted)",2.36 h
same,AUC(0-inf),[1]; [5],5210 ng·h/mL
same,AUC(0-t),[1]; [5],5080 ng·h/mL
same,Cmax,[1]; [5],2690 ng/mL
same,Tmax,[1]; [5],0.54 h
same,k el,[1]; [5],0.000106 s⁻¹
same,clearance,"[1]; single i.v. dose 50 mg, n = 6, mean (SD), read-out: CL (converted)",164 mL/min
same,Vd,"[1]; single i.v. dose 50 mg, n = 6, mean (SD), read-out: Vss",22.4 L
same,half-life,"[1]; single i.v. dose 50 mg, n = 6, mean (SD), read-out: t1/2 (converted)",1.83 h
same,AUC(0-inf),[1]; [6],16300 ng·h/mL
same,AUC(0-t),[1]; [6],16100 ng·h/mL
same,Cmax,[1]; [6],9020 ng/mL
same,Tmax,[1]; [6],0.5 h
same,k el,[1]; [6],0.000111 s⁻¹
same,clearance,"[1]; single i.v. dose 150 mg, n = 6, mean (SD), read-out: CL (converted)",157 mL/min
same,Vd,"[1]; single i.v. dose 150 mg, n = 6, mean (SD), read-out: Vss",20.2 L
same,half-life,"[1]; single i.v. dose 150 mg, n = 6, mean (SD), read-out: t1/2 (converted)",1.76 h
same,AUC(0-inf),[1]; [7],53900 ng·h/mL
same,AUC(0-t),[1]; [7],53600 ng·h/mL
same,Cmax,[1]; [7],31300 ng/mL
same,Tmax,[1]; [7],0.5 h
same,k el,[1]; [7],0.000108 s⁻¹
same,clearance,"[1]; single i.v. dose 500 mg, n = 6, mean (SD), read-out: CL (converted)",156 mL/min
same,Vd,"[1]; single i.v. dose 500 mg, n = 6, mean (SD), read-out: Vss",19.6 L
same,half-life,"[1]; single i.v. dose 500 mg, n = 6, mean (SD), read-out: t1/2 (converted)",1.77 h
same,clearance,"[1]; single i.v. doses 50 to 2,000 mg, read-out: mean CL, range across doses",117 to 164 mL/min
same,Vd,"[1]; single i.v. doses 50 to 2,000 mg, read-out: mean Vss, range across doses",17 to 22.4 L
same,half-life,"[1]; single i.v. doses, 1.76 ± 0.17 to 2.36 ± 0.46, read-out: mean apparent terminal elimination half-life (t1/2), range across doses",1.76 to 2.36 h
same,fraction unbound,[2],0.98
same,protein binding,[2],2%

# From PMC7179653 (Antimicrobial Agents and Chemotherapy, 2020)
